# According to paper PMC8772772, “Enantioselective Synthesis and Pharmacological Evaluation of Aza-CGP37157–Lipoic Acid Hybrids for the Treatment of Alzheimer’s Disease” (Antioxidants, 2022):
# “And” between values parts separate entries of the source, which are not always exact repeats. Identical values can stand only once.
# How the values were obtained:
# NRF2 [1] = assay: NRF2 induction, luciferase expression in AREc32 cell line; format: cell-based; conditions: for CD (concentration required to double the specific luciferase activity): AREc32 cells, 0.3, 3, 10 and 30 μM (LA: 0.1–0.6 mM), mean ± SEM
# Procedure: AREc32 cell line was kindly shared by Professor Roland Wolf (University of Dundee, UK). AREc32 cells were maintained in DMEM/glutamax/high glucose (Gibco, 61965-06, Madrid, Spain), supplemented with 1% penicillin–streptomycin (10,000 units) (SigmaAldrich, P4333, Madrid, Spain), geneticin (0.8 mg/mL) (Gibco, 11811-031) and 10% FBS (Gibco, 10270106), at 37 °C in a 5% CO2 air atmosphere. Cells were used from passage 4 to 18, and mycoplasma contamination was tested every 4 weeks. AREc32 cells were seeded in 96-well white plates (2 × 10^4 cells/well) for 24 h. Thereafter, cells were treated with each compound (0.3, 3, 10 and 30 µM) in duplicate for 24 h. Non-treated cells were included as basal luciferase expression and tert-butylhydroquinone (TBHQ, 10 μM) as positive control in each plate. Luciferase expression was evaluated by using the Luciferase Assay System (Promega, E1483, Madrid, Spain) by luminescence in an Orion II microplate luminometer (Berthold, Germany). Luciferase activity increase was normalized to basal conditions considered as 1. CD values (concentration required to double the luciferase activity) were calculated from dose–response curves of luciferase fold induction vs. compound concentration, fitted by non-linear regression and data interpolated to value 2.
# To evaluate the influence of both stereogenic centers in the NRF2 induction capacity of aza-CGP37157-LA hybrids, we used the AREc32 cell line model by analyzing luciferase expression upon treatment with NRF2 inducers. AREc32 cells were exposed to increasing concentrations of tested compounds 7a–d (0.3, […], 10 and 30 μM) during 24 h; thereafter, luciferase expression was evaluated by luminescent assay to calculate the corresponding CD value (concentration to double luciferase expression). […] TBHQ was included as a positive control, and CGP37157, S- and R-LA, rac-3a and (rac,R)-3b and precursors derivatives (R-6 and S-6) were included for comparative purposes. […] Once R-LA is reduced, it might activate the phase II antioxidant response by acting as pro-oxidant over key Cys residues at KEAP1 to generate the corresponding lipoyl-cystinyl disulphide.
# [2] = test system: SH-SY5Y neuroblastoma cells; assay: Neuroprotection against okadaic acid hyperphosphorylation in SH-SY5Y cells (MTT); format: cell-based, human; conditions: for % Survival / % Protection: compound 1 μM 24 h, then compound + OA 24 h; for % Survival: basal = 100, OA alone 54.7; for % Protection: n.p = compound does not protect cells
# Procedure: Human neuroblastoma SH-SY5Y cells were plated in 96-well clear multi-well plates (6 × 10^4 cells/well). The potential neuroprotective activity of compounds against OS was evaluated using the rotenone (30 μM) (SigmaAldrich, R8875) and oligomycin A (10 μM) (SigmaAldrich, 75351) (R/O) toxic mixture. Neuroprotection activity against Tau hyperphosphorylation was evaluated by using the okadaic acid (20 nM) model. Cells were pre-incubated with each compound (1 µM) for 24 h, and then treatments were removed and cells were incubated with compounds (1 µM) in the presence the corresponding toxic for additional 24 h. At the end of the experiments, viability was determined by the MTT method. Data were normalized from cell death induced by the toxic stimuli (considered as 100% cell death). Then, the protection percentages were calculated by subtracting from the death induced by toxic stimuli, the death in the presence of the compound.
# The tetrazolium ring of MTT can be cleaved by active dehydrogenases to produce a formazan precipitate. At the end of the experiments, MTT (SigmaAldrich, M2003) stock solution was added to each well to achieve a final concentration of 0.5 mg/mL. Cells were incubated for 2 h. Thereafter, culture media was removed, and DMSO was added to each well to dissolve the formazan precipitate. Finally, absorbance was measured in a microplate reader (SPECTROstar nano, BMG Labtech) at 570 nm. Absorbance obtained in basal conditions was considered as 100% cell viability.
# Considering these precedents, we envisaged the evaluation of our compounds in a hyperphosphorylation toxicity model induced by okadaic acid (OA), a protein phosphatase 2A inhibitor [58, 59]. This inhibition causes an imbalance between kinase and phosphatase action, leading to hyperphosphorylation of proteins, in particular, Tau. Thus, treatment of SH-SY5Y neuroblastoma cells with OA is a well-stablished model of Tau hyperphosphorylation. Similarly, to the method used for the OS model, we selected a pre-incubation/co-incubation protocol to evaluate the potential neuroprotection capacity related to the NRF2 induction/antioxidant properties of the compounds. Cells were treated with compounds (±)-6, R-6, S-6 or 7a–d (1 µM) during 24 h; thereafter, cells were co-treated with compounds (1 µM) and OA (20 nM) for a further 24 h. Melatonin was also included as a positive control. Finally, cellular viability was evaluated by the MTT method. […] Finally, the (R,S)-7c diastereomer was not able to afford any protection, a result that might be in line with its low NRF2 induction capacity.
# NRF2 [3] = assay: NRF2 nuclear localization, immunocytochemistry in AREc32 cells; format: cell-based; conditions: 30 μM, 2 h, vs basal
# Procedure: AREc32 cells were plated in 24 multi-well plates on poly-D-Lysine-coated crystal slides (4 × 10^4 cells/well). Cells were treated with compounds 7a or 7b (30 µM) for 2 h and fixed by treatment with 4% paraformaldehyde solution in PBS (10 min). After 3 washings with PBS every 5 min, cells were permeabilized with 0.1% Triton X-100 solution for five min, washed 3 times with PBS (5 min) and incubated overnight with primary antibody anti-NRF2 (1:50, A-10, sc-365949, Santa Cruz Biotechnology, Dallas, TX, USA). Thereafter, cells were washed with PBS (3×, 5 min) and incubated with secondary antibody (1:500, 1 h). Finally, nuclei were stained with 5 µg/mL PBS solution of Hoechst 33342 (Invitrogen, Madrid, Spain) during the second wash. Finally, slides were mounted on coverslips (glycerol–PBS (1:1 v/v)), and images were obtained in a confocal microscope (TCS SPE, Leica, Wetzlar, Germany).
# To obtain deeper insight into the mechanism of action of compounds 7, we evaluated their potential capacity to induce NRF2 nuclear localization and the activation of the phase II response. As previously described, NRF2 is sequestered at the cytoplasm by its repressor protein KEAP1, which mediates its proteasomal degradation. […] Thus, we firstly evaluated the capacity of compounds 7a and 7b to induce NRF2 nuclear localization as part of their mechanism of action. […]
Compound,"luciferase activity increase at 30 μM (NRF2 [1]; AREc32 cells, 24 h, vs basal)",CD (concentration required to double the specific luciferase activity) (NRF2 [1]; 24 h),"neuroprotective capacity relative to (S,R)-7b, folds less potent ([2]; OA model, 1 µM)",% Survival [2],% Protection [2],"NRF2 induction potency relative to (S,S)-7a (NRF2 [1]; ratio of CD values)",NRF2 nuclear localization (NRF2 [3]),"luciferase activity increase at 10 μM (NRF2 [1]; AREc32 cells, 10 μM, 24 h, vs basal)"
"O=C1CN(CCOC(=O)CCCC[C@@H]2CCSS2)[C@@H](c2ccccc2Cl)c2cc(Cl)ccc2N1 [(R,R)-7d, 2-((R)-7-Chloro-5-(2-chlorophenyl)-2-oxo-1,2,3,5-tetrahydro-4H-benzo[e][1,4]diazepin-4-yl)ethyl 5-((R)-1,2-dithiolan-3-yl)pentanoate]",significantly increase luciferase activity,over 30 μM,2 folds,63.3 ± 8.7%,21%,,,
"O=C1CN(CCOC(=O)CCCC[C@H]2CCSS2)[C@@H](c2ccccc2Cl)c2cc(Cl)ccc2N1 [(S,R)-7b, 2-((R)-7-Chloro-5-(2-chlorophenyl)-2-oxo-1,2,3,5-tetrahydro-4H-benzo[e][1,4]diazepin-4-yl)ethyl 5-((S)-1,2-dithiolan-3-yl)pentanoate]",,11.9 ± 1.3 µM,,70.6 ± 10.3%,41.9% and 40.2%,2.2 fold,predominantly nuclear localization of NRF2,
"O=C1CN(CCOC(=O)CCCC[C@H]2CCSS2)[C@H](c2ccccc2Cl)c2cc(Cl)ccc2N1 [(S,S)-7a, 2-((S)-7-Chloro-5-(2-chlorophenyl)-2-oxo-1,2,3,5-tetrahydro-4H-benzo[e][1,4]diazepin-4-yl)ethyl 5-((S)-1,2-dithiolan-3-yl)pentanoate]",,26.5 ± 1.3 µM,,63.2 ± 7.6%,21.2%,,predominantly nuclear localization of NRF2,
"O=C1CN(CCOC(=O)CCCC[C@@H]2CCSS2)[C@H](c2ccccc2Cl)c2cc(Cl)ccc2N1 [(R,S)-7c, 2-((S)-7-Chloro-5-(2-chlorophenyl)-2-oxo-1,2,3,5-tetrahydro-4H-benzo[e][1,4]diazepin-4-yl)ethyl 5-((R)-1,2-dithiolan-3-yl)pentanoate]",significantly increase luciferase activity,over 30 μM,,50.7 ± 15.6%,not protective and n.p,,,significantly increase luciferase activity
